In BindingDB's records for doi:10.1016/j.bmcl.2016.06.045 (China Pharmaceutical University, 2016) one finds IC50 data, which are given here for six compounds.

The assay can be described thus: Inhibition of PARP1 in human A549 cells assessed as potentiation of TMZ-mediated cytotoxicity by measuring TMZ IC50 for growth inhibition at 0.5 uM by SRB assay (Rvb TMZ IC50 = 295 uM). Background: Sulforhodamine B stains cellular protein and so reports cell mass.

As usually defined, the IC50 is the midpoint of a concentration-inhibition curve. Turning to `CCCN1CCC(c2nc3c(C(N)=O)c(F)ccc3[nH]2)CC1`, the IC50 is 152 µM.
In the case of `CN1CCC[C@@]1(C)c1nc2c(C(N)=O)c(F)ccc2[nH]1`, the IC50 was 310 µM.
As for `NC(=O)c1c(F)ccc2[nH]c(-c3ccc(N4CCOCC4)cc3)nc12`, the IC50 came to 130 µM.
The result for `C[C@]1(c2nc3c(C(N)=O)c(F)ccc3[nH]2)CCCN1` reads 338 µM; that for `NC(=O)c1c(F)ccc2[nH]c(-c3ccc(N4CCNCC4)cc3)nc12`, 188 µM; that for `NC(=O)c1c(F)ccc2[nH]c(C3CCNCC3)nc12`, 354 µM.
